Data set [1] addresses T1, human M1 receptor (hCHRM1) (Homo sapiens, UniProt P11229).
T1 construct: expressed in transfected cells
T1 sequence (P11229 1-460): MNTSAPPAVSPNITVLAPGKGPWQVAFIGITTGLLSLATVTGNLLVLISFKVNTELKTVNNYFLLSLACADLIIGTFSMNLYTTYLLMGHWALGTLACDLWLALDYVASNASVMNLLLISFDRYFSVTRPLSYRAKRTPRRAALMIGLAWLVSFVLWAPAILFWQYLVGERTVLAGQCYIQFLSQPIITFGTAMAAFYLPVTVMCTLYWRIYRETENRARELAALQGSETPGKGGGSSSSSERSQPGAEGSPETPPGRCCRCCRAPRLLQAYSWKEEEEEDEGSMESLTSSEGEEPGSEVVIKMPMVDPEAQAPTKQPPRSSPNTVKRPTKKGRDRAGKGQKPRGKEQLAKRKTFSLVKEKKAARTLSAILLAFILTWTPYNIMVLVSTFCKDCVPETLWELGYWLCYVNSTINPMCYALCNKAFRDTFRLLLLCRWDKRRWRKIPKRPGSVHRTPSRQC
Nature of the data set: Measurement of M1 receptor positive allosteric modulator (M1PAM) activity, calcium fluorescence in CHO-K1 cells. The class given is cell-based. The settings on record: for activity (%) at 10 μM: 10 μM test compound, 100% = acetylcholine final concentration 1 μM, 0% = DMSO; for EC50: inflection point of concentration-dependent curve, in the presence of acetylcholine at EC20 concentration (final 0.8-1.0 nM), read-out: IP value. As for the experimental part:
Measurement of M1 Receptor Positive Allosteric Modulator (M1PAM) Activity
The activity of a test compound in the presence of acetylcholine at EC20 concentration (final concentration 0.8-1.0 nM), which affords an action corresponding to about 20% of the maximum activity, was measured as PAM activity. The method is as follows. CHO-K1 cells stably expressing a human M1 receptor (hCHRM1) were plated on a 384-well black clear bottom plate (BD Falcon) at 5,000 cells/well, and cultured in an incubator at 37° C., 5% CO2 for 1 day. The medium in the cell plate was removed, and assay buffer A containing calcium indicator (Recording medium (DOJINDO LABORATORIES), 0.1% BSA (Wako Pure Chemical Industries, Ltd.), 2.5 μg/mL Fluo-4 AM (DOJINDO LABORATORIES), 0.08% Pluronic F127 (DOJINDO LABORATORIES), 1.25 mM probenecid (DOJINDO LABORATORIES)) was added at 30 μL/well. The cells were left standing in the incubator at 37° C., 5% CO2 for 30 min, and further left standing at room temperature for 30 min. A test compound prepared by diluting with assay buffer B (HBSS (Invitrogen), 20 mM HEPES (Invitrogen), 0.1% BSA) containing 3.2-4.0 nM acetylcholine was added at 10 μL/well, and the fluorescence was measured by FDSS/pCELL (Hamamatsu Photonics K.K.) for 1 min every for 1 second. With the definition that the amount of change in the fluorescence on addition of acetylcholine (final concentration 1 μM) is 100% and that on addition of DMSO instead of a test compound is 0%, the activity (%) of the test compound was calculated, and the inflection point in the concentration-dependent curve of the test compound was calculated as IP values.

The target of the next data set is T2, MDR1 (Homo sapiens, UniProt P08183).
T2 construct: expressed in transfected cells
Nature of the data set: MDR1 membrane permeability test. The class given is in vitro ADME. As to conditions: pH 7.4, efflux ratio (ER), Papp B to A / A to B, human MDR1-expressing LLC-PK1 cells, read-out: MDR1 substrate screening 1 μM (MDRSUB1)/Ratio (NUMBER). In outline:
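Human MDR1-expressing LLC-PK1 cells were grown for 3 days on 96-well polyethylene terephthalate Transwell supports (0.4 μm pores, 0.143 cm^2) seeded at 3.45×10^4 cells/well. After a 30 min preincubation in M199 medium with 10 mmol/L HEPES and 1% BSA (pH 7.4), drug was added apically or basolaterally. After 1 hr at 37° C, the opposite side was sampled and analyzed by LC-MS/MS. Efflux ratio was calculated from Papp B to A versus A to B.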

T2 sequence (P08183 whole entry): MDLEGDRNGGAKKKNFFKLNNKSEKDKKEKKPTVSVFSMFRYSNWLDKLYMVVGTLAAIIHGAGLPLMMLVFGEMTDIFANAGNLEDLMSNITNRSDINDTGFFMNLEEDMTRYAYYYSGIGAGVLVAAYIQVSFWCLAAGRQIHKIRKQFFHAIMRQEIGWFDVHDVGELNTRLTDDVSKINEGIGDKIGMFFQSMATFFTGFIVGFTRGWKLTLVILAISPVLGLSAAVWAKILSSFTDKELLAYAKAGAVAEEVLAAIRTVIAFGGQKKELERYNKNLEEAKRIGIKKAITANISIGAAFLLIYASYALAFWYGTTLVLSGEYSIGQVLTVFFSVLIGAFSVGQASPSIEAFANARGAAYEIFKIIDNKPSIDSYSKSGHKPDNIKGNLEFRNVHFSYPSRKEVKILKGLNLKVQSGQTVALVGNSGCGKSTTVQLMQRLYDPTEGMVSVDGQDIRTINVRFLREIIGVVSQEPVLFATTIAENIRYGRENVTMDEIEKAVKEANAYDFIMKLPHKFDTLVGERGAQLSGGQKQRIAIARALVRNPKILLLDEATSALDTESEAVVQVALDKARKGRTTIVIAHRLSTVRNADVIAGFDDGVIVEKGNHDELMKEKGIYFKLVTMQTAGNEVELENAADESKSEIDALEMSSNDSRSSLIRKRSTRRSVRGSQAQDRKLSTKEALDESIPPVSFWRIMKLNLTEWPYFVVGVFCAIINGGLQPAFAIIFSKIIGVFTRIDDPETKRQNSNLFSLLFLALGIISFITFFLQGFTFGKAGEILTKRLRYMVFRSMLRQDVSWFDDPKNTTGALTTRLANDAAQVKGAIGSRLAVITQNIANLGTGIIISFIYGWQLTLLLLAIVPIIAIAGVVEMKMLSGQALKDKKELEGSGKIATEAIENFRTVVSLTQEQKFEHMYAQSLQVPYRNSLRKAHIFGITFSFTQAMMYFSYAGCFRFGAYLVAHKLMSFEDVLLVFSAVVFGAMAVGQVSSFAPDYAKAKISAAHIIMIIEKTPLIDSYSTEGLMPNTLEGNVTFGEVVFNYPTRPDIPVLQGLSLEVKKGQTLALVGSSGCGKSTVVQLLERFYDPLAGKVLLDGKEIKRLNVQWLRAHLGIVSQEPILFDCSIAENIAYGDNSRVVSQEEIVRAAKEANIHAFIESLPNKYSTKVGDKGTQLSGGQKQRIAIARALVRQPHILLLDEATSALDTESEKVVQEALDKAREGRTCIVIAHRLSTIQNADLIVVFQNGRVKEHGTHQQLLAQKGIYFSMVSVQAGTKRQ

Consider `Cc1c(Cc2ccc(-c3cn(C)nn3)cc2)cc2c(=O)n([C@H]3CCOC[C@@H]3O)cnc2c1C` [Example 8, 1,5-anhydro-2,3-dideoxy-3-(7,8-dimethyl-6-(4-(1-methyl-1H-1,2,3-triazol-4-yl)benzyl)-4-oxoquinazolin-3(4H)-yl)-L-threo-pentitol], for which, in data set [1], the “activity (%) at 10 μM” value amounted to 97% and the EC50 turned out to be 1.4 nM. The efflux ratio at 1 hr, 1 μM at MDR1 stood at 4.8.

As to `Cc1c(Cc2ccc(-c3cnn(C)c3)cc2)cc2c(=O)n([C@H]3CCOC[C@@H]3O)cnc2c1C` [Example 9, 1,5-anhydro-2,3-dideoxy-3-(7,8-dimethyl-6-(4-(1-methyl-1H-pyrazol-4-yl)benzyl)-4-oxoquinazolin-3(4H)-yl)-L-threo-pentitol], in data set [1], the “activity (%) at 10 μM” value was 109% and the EC50 is 3.3 nM. Also, on MDR1, the efflux ratio at 1 hr, 1 μM is 2.1.

Regarding `Cc1c(Cc2ccc(-c3cnn(C)c3)nc2)cc2c(=O)n([C@H]3CCOC[C@@H]3O)cnc2c1Cl` [Example 11, 1,5-anhydro-3-(8-chloro-7-methyl-6-((6-(1-methyl-1H-pyrazol-4-yl)pyridin-3-yl)methyl)-4-oxoquinazolin-3(4H)-yl)-2,3-dideoxy-L-threo-pentitol], in data set [1], the “activity (%) at 10 μM” value was 100% and the EC50 was determined as 0.91 nM. Further, at MDR1, the efflux ratio at 1 hr, 1 μM was found to be 17.

For `Cc1c(Cc2ccc(-c3ccn(C)n3)nc2)cc2c(=O)n([C@H]3CCOC[C@@H]3O)cnc2c1Cl` [Example 13, 1,5-anhydro-3-(8-chloro-7-methyl-6-((6-(1-methyl-1H-pyrazol-3-yl)pyridin-3-yl)methyl)-4-oxoquinazolin-3(4H)-yl)-2,3-dideoxy-L-threo-pentitol], in data set [1], the “activity (%) at 10 μM” value is 101% and the EC50 was 1 nM. Moreover, the efflux ratio at 1 hr, 1 μM on MDR1 came to 38.

`CNC(=O)c1ccc(Cc2cc3c(=O)n([C@H]4CCOC[C@@H]4O)cnc3c(C)c2C)cc1` [Example 18, 1,5-anhydro-2,3-dideoxy-3-(7,8-dimethyl-6-(4-(methylcarbamoyl)benzyl)-4-oxoquinazolin-3(4H)-yl)-L-threo-pentitol]: in data set [1], the “activity (%) at 10 μM” value was 106% and the EC50 stood at 1 nM. For the same compound, the efflux ratio at 1 hr, 1 μM on MDR1 was 24.

As to `Cc1c(Cc2ccc(-c3cnn(C)c3)cc2)cc2c(=O)n([C@H]3CCOC[C@@H]3O)cnc2c1F` [Example 24, 1,5-anhydro-2,3-dideoxy-3-(8-fluoro-7-methyl-6-(4-(1-methyl-1H-pyrazol-4-yl)benzyl)-4-oxoquinazolin-3(4H)-yl)-L-threo-pentitol], in data set [1], the “activity (%) at 10 μM” value was 108% and the EC50 came out at 3.7 nM. In addition, the efflux ratio at 1 hr, 1 μM on MDR1 stood at 3.4.

As to `Cc1c(Cc2ccc(C(=O)NC3CC(F)(F)C3)cc2)cc2c(=O)n([C@H]3CCOC[C@@H]3O)cnc2c1C` [Example 25, 1,5-anhydro-2,3-dideoxy-3-(6-(4-((3,3-difluorocyclobutyl)-carbamoyl)benzyl)-7,8-dimethyl-4-oxoquinazolin-3(4H)-yl)-L-threo-pentitol], in data set [1], the “activity (%) at 10 μM” value is 109% and the EC50 was 1.9 nM. Besides, the efflux ratio at 1 hr, 1 μM on MDR1 turned out to be 16.

With `Cc1c(Cc2ccc(C(=O)NC3COC3)cc2)cc2c(=O)n([C@H]3CCOC[C@@H]3O)cnc2c1C` [Example 27, 1,5-anhydro-2,3-dideoxy-3-(7,8-dimethyl-6-(4-(oxetan-3-ylcarbamoyl)benzyl)-4-oxoquinazolin-3(4H)-yl)-L-threo-pentitol], in data set [1], the “activity (%) at 10 μM” value was found to be 110% and the EC50 was 1.4 nM. Moreover, at MDR1, the efflux ratio at 1 hr, 1 μM was found to be 23.

Consider `Cc1c(Cc2ccc(C(=O)NCC3CC3)cc2)cc2c(=O)n([C@H]3CCOC[C@@H]3O)cnc2c1C` [Example 29, 1,5-anhydro-3-(6-(4-((cyclopropylmethyl)carbamoyl)-benzyl)-7,8-dimethyl-4-oxoquinazolin-3 (4H)-yl)-2,3-dideoxy-L-threo-pentitol], for which, in data set [1], the “activity (%) at 10 μM” value was found to be 112% and the EC50 is 1.6 nM. The efflux ratio at 1 hr, 1 μM on MDR1 stood at 12.

On to `Cc1c(Cc2ccc(C(=O)NC3CCOC3)cc2)cc2c(=O)n([C@H]3CCOC[C@@H]3O)cnc2c1C` (stereo partly drawn) [Example 33, 1,5-anhydro-2,3-dideoxy-3-(7,8-dimethyl-4-oxo-6-(4-(tetrahydrofuran-3-ylcarbamoyl)benzyl)quinazolin-3 (4H)-yl)-L-threo-pentitol], for which, in data set [1], the “activity (%) at 10 μM” value worked out at 111% and the EC50 stood at 1.8 nM. For the same compound, on MDR1, the efflux ratio at 1 hr, 1 μM came out at 20.

Take `COC1CN(C(=O)c2ccc(Cc3cc4c(=O)n([C@H]5CCOC[C@@H]5O)cnc4c(C)c3C)cc2)C1` [Example 41, 1,5-anhydro-2,3-dideoxy-3-(6-(4-((3-methoxyazetidin-1-yl)carbonyl)benzyl)-7,8-dimethyl-4-oxoquinazolin-3 (4H)-yl)-L-threo-pentitol]: in data set [1], the “activity (%) at 10 μM” value amounted to 108% and the EC50 is 11 nM. In addition, the efflux ratio at 1 hr, 1 μM at MDR1 amounted to 13.

Take `COCCNC(=O)c1ccc(Cc2cc3c(=O)n([C@H]4CCOC[C@@H]4O)cnc3c(C)c2C)cc1` [Example 49, 1,5-anhydro-2,3-dideoxy-3-(6-(4-((2-methoxyethyl)carbamoyl)benzyl)-7,8-dimethyl-4-oxoquinazolin-3 (4H)-yl)-L-threo-pentitol]: in data set [1], the “activity (%) at 10 μM” value is on record as 101% and the EC50 was found to be 1.1 nM. Also, the efflux ratio at 1 hr, 1 μM at MDR1 came out at 20.

Take `Cc1c(Cc2ccc(C(=O)NCCO)cc2)cc2c(=O)n([C@H]3CCOC[C@@H]3O)cnc2c1C` [Example 50, 1,5-anhydro-2,3-dideoxy-3-(6-(4-((2-hydroxyethyl)carbamoyl)benzyl)-7,8-dimethyl-4-oxoquinazolin-3 (4H)-yl)-L-threo-pentitol]: in data set [1], the “activity (%) at 10 μM” value amounted to 103% and the EC50 was 0.8 nM. Further, the efflux ratio at 1 hr, 1 μM on MDR1 turned out to be 13.

For `Cc1c(Cc2ccc(-c3cnn(C)c3)nc2)cc2c(=O)n([C@H]3CCOC[C@@H]3O)nnc2c1Cl` [Example 54, 1,5-anhydro-3-(8-chloro-7-methyl-6-((6-(1-methyl-1H-pyrazol-4-yl)pyridin-3-yl)methyl)-4-oxo-1,2,3-benzotriazin-3 (4H)-yl)-2,3-dideoxy-L-threo-pentitol], in data set [1], the “activity (%) at 10 μM” value amounted to 106% and the EC50 came to 0.99 nM. Further, on MDR1, the efflux ratio at 1 hr, 1 μM is 9.5.

Take `Cc1c(Cc2ccc(-c3cnn(C4CC4)c3)nc2)cc2c(=O)n([C@H]3CCOC[C@@H]3O)cnc2c1C` [Example 56, 1,5-anhydro-3-(6-((6-(1-cyclopropyl-1H-pyrazol-4-yl)pyridin-3-yl)methyl)-7,8-dimethyl-4-oxoquinazolin-3 (4H)-yl)-2,3-dideoxy-L-threo-pentitol]: in data set [1], the “activity (%) at 10 μM” value is 107% and the EC50 stood at 2.1 nM. Moreover, the efflux ratio at 1 hr, 1 μM on MDR1 turned out to be 4.9.

Take `COc1cc2ncn([C@H]3CCOC[C@@H]3O)c(=O)c2cc1Cc1ccc(-c2cnn(C)c2)nc1` [Example 58, 1,5-anhydro-2,3-dideoxy-3-(7-methoxy-6-((6-(1-methyl-1H-pyrazol-4-yl)pyridin-3-yl)methyl)-4-oxoquinazolin-3 (4H)-yl)-L-threo-pentitol]: in data set [1], the “activity (%) at 10 μM” value is reported as 103% and the EC50 is 1.9 nM. Moreover, the efflux ratio at 1 hr, 1 μM at MDR1 amounted to 19.

For the compound `Cc1c(Cc2ccc(-c3ccn(C)n3)nc2)cc2c(=O)n([C@H]3CCOC[C@@H]3O)nnc2c1C` [Example 59, 1,5-anhydro-2,3-dideoxy-3-(7,8-dimethyl-6-((6-(1-methyl-1H-pyrazol-3-yl)pyridin-3-yl)methyl)-4-oxo-1,2,3-benzotriazin-3 (4H)-yl)-L-threo-pentitol], in data set [1], the “activity (%) at 10 μM” value is 108% and the EC50 is 2.6 nM. On MDR1, the efflux ratio at 1 hr, 1 μM was determined as 3.7.

Values taken from US11560372B2, “Heterocyclic compounds useful as modulators of acetylcholine receptors” (TAKEDA PHARMACEUTICAL COMPANY LIMITED, priority 2017, dated 2023).
